Reference: patent US20200010910A1, “Cytotoxic Chemotherapy-Based Predictive Assays for Acute Myeloid Leukemia” (The Regents of The University of California, priority 2017, published 2020)

How the values were obtained:
[1] = tested on: 5637 and 5637R cell lines; assay: gemcitabine incorporation into DNA by AMS; type: cell-based, human
Description: The two cell lines were cultured as described above in Example 11. [^14C]Gemcitabine (FIG. 19) was labeled at position 2 (on the aromatic nucleobase) with a specific activity of 58.8 mCi/mmol (purchased from Moravek Biochemical). Unlabeled gemcitabine (USP Pharmaceutical Grade) was mixed with the labeled gemcitabine to achieve the correct specific activity for this experiment. […] This microdose is approximately 0.1% of a therapeutically relevant concentration. Cells were sampled for DNA extraction and AMS analysis of ^14C in DNA over 24 hours.

PDX Model BL0269 [2] = assay: PDX tumor growth under chemotherapy; type: in vivo, NSG mice; settings: cisplatin 2 mg/kg IV Q7Dx3, gemcitabine 150 mg/kg IP Q7Dx4
Description: (§1) Female NSG mice (5-8 weeks of age, body weight: 20 to 25 g) were obtained from Jackson Laboratories (CA, USA). […] To establish multiple PDXs to allow efficacy studies with multiple drugs, PDXs from passage 2-4 were minced into 1 mm^3 sections and injected subcutaneously into multiple mice. […] G/C combination chemotherapy consisted of the simultaneous administration of both drugs using the schema described above. Tumor growth was assessed by measuring palpable tumors with a caliper and calculating tumor volume. […] DNA was isolated using a modified Wizard procedure (Promega), quantitated by spectrophotometry, and then stored frozen at −20° C. until AMS analysis. […] Primary tumor tissue from four bladder cancer patients were implanted in NSG mice to create the PDX models described in Table 5. […] Of the four distinct tumors tested in the PDX model, three were resistance to cisplatin (BL0269, BL0293, BL0645) and two were resistance to gemcitabine (BL0269, BL0645) as single agent therapies.

PDX Model BL0293 [3] = assay: PDX tumor growth under chemotherapy; type: in vivo, NSG mice; settings: cisplatin 2 mg/kg IV Q7Dx3, gemcitabine 150 mg/kg IP Q7Dx4
Description: as §1

PDX Model BL0440 [4] = assay: PDX tumor growth under chemotherapy; type: in vivo, NSG mice; settings: cisplatin 2 mg/kg IV Q7Dx3, gemcitabine 150 mg/kg IP Q7Dx4
Description: as §1

PDX Model BL0645 [5] = assay: PDX tumor growth under chemotherapy; type: in vivo, NSG mice; settings: cisplatin 2 mg/kg IV Q7Dx3, gemcitabine 150 mg/kg IP Q7Dx4
Description: as §1

PDX Model BL0269 [6] = assay: drug-DNA adducts in PDX tumor by AMS; type: in vivo, NSG mice
Excerpt: (§2) Female NSG mice (5-8 weeks of age, body weight: 20 to 25 g) were obtained from Jackson Laboratories (CA, USA). All animals were kept under pathogen-free conditions and were allowed to acclimatize for at least 4 days prior to any experiments. PDX models bearing the indicated patient derived xenografts were created by subcutaneous injection at the flank of 1 mm^3 tumor tissue. To establish multiple PDXs to allow efficacy studies with multiple drugs, PDXs from passage 2-4 were minced into 1 mm^3 sections and injected subcutaneously into multiple mice. At least 3 mice were used for each treatment group. Tumors were allowed to grow to at about 100 mm^3 before being assessed for drug sensitivity or the induction of DNA adducts by the administration of a microdose or a therapeutic dose of labeled drug. To assess tumor response to chemotherapy, cisplatin was administered at 2 mg/kg IV every 7 days for a total of 3 cycles, or gemcitabine was administered at 150 mg/kg IP every 7 days for a total of 4 cycles. G/C combination chemotherapy consisted of the simultaneous administration of both drugs using the schema described above. Tumor growth was assessed by measuring palpable tumors with a caliper and calculating tumor volume. Drug-DNA adduct frequencies were measured in tumor tissue collected 24 hours after intravenous injection of labeled drug and stored at −80° C. until DNA isolation. DNA was isolated using a modified Wizard procedure (Promega), quantitated by spectrophotometry, and then stored frozen at −20° C. until AMS analysis. Ten micrograms of DNA per sample was converted to graphite and measured by AMS for 14C quantification as previously described.
(§3) NSG mice bearing the indicated PDX tumors were injected with a microdose of ^14C-labeled carboplatin (FIG. 22A) or ^14C-labeled gemcitabine (FIG. 22B). The microdose of ^14C-labeled carboplatin was 0.375 mg/kg carboplatin, 50,000 dpm/g. The microdose of ^14C-labeled gemcitabine was 0.092 mg/kg gemcitabine, 1000 dpm/g. The doses of each drug administered to the mice were chosen to target 1 μM in plasma concentration of carboplatin and 0.3 μM in plasma concentration of gemcitabine. These plasma concentrations represent 1% of the approximate peak plasma concentration during human chemotherapy. Animals were sacrificed after 24 h and drug-DNA adduct frequency was determined from collected tumor tissue by AMS measurements of ^14C in tumor DNA. Carboplatin DNA-adduct levels correlate with PDX model sensitivity to cisplatin at 24 h after microdosing (FIG. 22A). Gemcitabine DNA-adduct levels correlate with PDX model sensitivity to gemcitabine at 24 h after microdosing (FIG. 22B). […] There is no significant difference in carboplatin-DNA monoadduct levels between the three resistant PDX models. […] We conclude that microdose induced carboplatin-DNA monoadducts predicts sensitivity to cisplatin chemotherapy, and microdose induced gemcitabine incorporation predicts sensitivity to gemcitabine chemotherapy.
(§4) In this example we test whether gemcitabine/carboplatin (G/Carbo) combination therapy has an effect on the formation of drug-DNA adducts in this synergistic tumor model. In FIG. 23A, NGS mice bearing BL0645 xenographs were administered via tail vein injection a therapeutic dose of [^14C]carboplatin alone or a therapeutic dose of [^14C]carboplatin in combination with a therapeutic dose of gemcitabine. Carboplatin-DNA monoadducts were measured in tumor tissue 24 h after dosing. A therapeutic dose of the combination [^14C]carboplatin plus unlabeled gemcitabine leads to a significant increase in carboplatin-DNA monoadduct level (94.84±16.02 versus 209.6±64.66 adducts per 10^8 nucleotides, p=0.032) compared to treatment with carboplatin alone. In FIG. 23B, the same experiment was conducted in which the mice received a therapeutic dose of [^14C]gemcitabine alone or a therapeutic dose of [^14C]gemcitabine in combination with a therapeutic dose of unlabeled carboplatin. […]

PDX Model BL0645 [7] = assay: drug-DNA adducts in PDX tumor by AMS; type: in vivo, NSG mice; settings: 24 h
Excerpt: as §2, §3, §4

PDX Model BL0293 [8] = assay: drug-DNA adducts in PDX tumor by AMS; type: in vivo, NSG mice; settings: microdose 0.092 mg/kg gemcitabine, 24 h
Excerpt: as §2
(§5) NSG mice bearing the indicated PDX tumors were injected with a microdose of ^14C-labeled carboplatin (FIG. 22A) or ^14C-labeled gemcitabine (FIG. 22B). The microdose of ^14C-labeled carboplatin was 0.375 mg/kg carboplatin, 50,000 dpm/g. The microdose of ^14C-labeled gemcitabine was 0.092 mg/kg gemcitabine, 1000 dpm/g. The doses of each drug administered to the mice were chosen to target 1 μM in plasma concentration of carboplatin and 0.3 μM in plasma concentration of gemcitabine. These plasma concentrations represent 1% of the approximate peak plasma concentration during human chemotherapy. Animals were sacrificed after 24 h and drug-DNA adduct frequency was determined from collected tumor tissue by AMS measurements of ^14C in tumor DNA. Carboplatin DNA-adduct levels correlate with PDX model sensitivity to cisplatin at 24 h after microdosing (FIG. 22A). Gemcitabine DNA-adduct levels correlate with PDX model sensitivity to gemcitabine at 24 h after microdosing (FIG. 22B). […] There is no significant difference in carboplatin-DNA monoadduct levels between the three resistant PDX models. […]

PDX Model BL0440 [9] = assay: drug-DNA adducts in PDX tumor by AMS; type: in vivo, NSG mice; settings: microdose 0.092 mg/kg gemcitabine, 24 h
Excerpt: as §2, §5

[10] = IV dose of 1000 mg/m^2 over 30 minutes; cited from earlier work
H1975 = assay: MTT assay IC50; type: cell-based, human
Description: (§6) Six non-small cell lung cancer (NSCLC) cell lines were treated in culture with [^14C]carboplatin. Carboplatin-DNA monoadduct levels over time were determined by measuring ^14C content in genomic DNA with accelerator mass spectrometry (AMS). Cellular sensitivity to carboplatin and cisplatin was analyzed by the MTT assay (Henderson et al., International Journal of Cancer 2011).
(§7) Human NSCLC cell lines H23, H460, H727, HCC827, H1975, and A549 were purchased from ATCC and were cultured with the recommended medium. The MTT assay was performed as previously reported to determine the drug concentration required to inhibit cell growth by 50% (IC50) of cisplatin and carboplatin. [^14C]Carboplatin (at 53 mCi/mmol) was mixed with unlabeled carboplatin to achieve the specific activities required for microdoses and therapeutic doses. Table 1 lists the six NSCLC cell lines and summarizes their IC50 characteristics, induced carboplatin-DNA monoadducts when treated with [^14C]carboplatin, and p and r^2 values for correlation analysis to the IC50 concentrations.

H23 = assay: MTT assay IC50; type: cell-based, human
Description: as §6, §7

H460 = assay: MTT assay IC50; type: cell-based, human
Description: as §6, §7

H727 = assay: MTT assay IC50; type: cell-based, human
Description: as §6, §7

HCC827 = assay: MTT assay IC50; type: cell-based, human
Description: as §6, §7

HT1197 = assay: MTT assay IC50, bladder cancer cell line; type: cell-based
Excerpt: (§8) If these diadducts are the predominant DNA lesion responsible for cell death, then the IC50 of the two drugs should be linearly related. Thus, we measured the IC50 of the six NSCLC cell lines from Example 2 to both cisplatin and carboplatin to determine if the sensitivity of these six NSCLC cell lines to the two drugs are correlated. We observed a statistically significant linear correlation of the cytotoxicity of these two drugs in the 6 cell lines used in this study (R^2=0.72, p=0.033, FIG. 9A) and also to six additional ATCC bladder cancer cell lines. (R^2=0.72, p=0.033), FIG. 9B).

J82 = assay: MTT assay IC50, bladder cancer cell line; type: cell-based
Excerpt: as §8

RT4 = assay: MTT assay IC50, bladder cancer cell line; type: cell-based
Excerpt: as §8

T24 = assay: MTT assay IC50, bladder cancer cell line; type: cell-based
Excerpt: as §8

TCCSUP = assay: MTT assay IC50, bladder cancer cell line; type: cell-based
Excerpt: as §8

5637R = assay: MTT assay IC50, oxaliplatin-resistant bladder cancer sub-line; type: cell-based, human; settings: 5637R, 72 hours
Description: Drug-DNA adduct formation and repair was measured by accelerator mass spectrometry.
To confirm that 5637 was the original ATCC cell line, and that 5637R originated from the parental 5637 cell line, both cultures were sent to the ATCC Cell Line Authentication Service for cell verification per the ATCC protocol. More specifically, fifteen short tandem repeat (STR) loci plus the gender determining locus, amelogenin, were amplified using the commercially available PowerPlex® 16HS Kit from Promega.
These two cell lines were also cultured with a range of concentrations of cisplatin, carboplatin, gemcitabine, doxorubicin, methotrexate and vinblastine for 72 hours to determine IC50 for these other drugs (FIG. 16C). These drugs were chosen because of their frequent use in the treatment of bladder cancer.

Nc1ccn([C@@H]2O[C@H](CO)[C@@H](O)C2(F)F)c(=O)n1 [gemcitabine]
gemcitabine incorporation in 5637R compared to parental 5637 cells ([1]; 0.03 μM 4 hours, at 24 hours): much lower gemcitabine incorporation | cytotoxicity of subtherapeutic dose ([1]; 0.03 μM for 4 hours): no cytotoxicity | Xenograph Sensitivity (PDX Model BL0269 [2]): RES | Xenograph Sensitivity (PDX Model BL0293 [3]): SEN | Xenograph Sensitivity (PDX Model BL0440 [4]): SEN | Xenograph Sensitivity (PDX Model BL0645 [5]): RES | gemcitabine-DNA adduct levels (PDX Model BL0269 [6]; control experiment FIG. 23F, microdose single agent or G/Carbo combination): 2.44±0.492 adducts per 10^8 nucleotides | gemcitabine adduct levels (PDX Model BL0269 [6]; microdose 0.092 mg/kg gemcitabine, 24 h (FIG. 22B)): 3.17±0.278 | gemcitabine adducts (PDX Model BL0645 [7]; microdose 0.092 mg/kg gemcitabine alone or with carboplatin 0.375 mg/kg): 2.44±0.880 adducts per 10^8 nucleotides | gemcitabine adduct level (PDX Model BL0645 [7]; therapeutic 9.2 mg/kg gemcitabine alone or with carboplatin 37.5 mg/kg): 169.2±9.129 adducts per 10^8 nucleotides | gemcitabine adduct levels (PDX Model BL0293 [8]): 10.0±5.92 | gemcitabine adduct levels (PDX Model BL0440 [9]): 13.1±10.2 | plasma concentration [10]: about 30 μM | plasma half-life [10]: about 60 minutes

N.N.[Cl][Pt][Cl] [cisplatin]
IC50 (H1975): 14.5 µM | IC50 (H23): 4.23 µM | IC50 (H460): 3.53 µM | IC50 (H727): 20 µM | IC50 (HCC827): 18.2 µM | IC50 (HT1197): 6.2 ± 0.03 µM | IC50 (J82): 12.6 ± 1.17 µM | IC50 (RT4): 8.35 ± 0.01 µM | IC50 (T24): 5.28 ± 0.04 µM | IC50 (TCCSUP): 11.7 ± 1.63 µM | IC50 (5637R): 2.99 µM | Xenograph Sensitivity (PDX Model BL0269 [2]): RES | Xenograph Sensitivity (PDX Model BL0293 [3]): RES | Xenograph Sensitivity (PDX Model BL0440 [4]): SEN | Xenograph Sensitivity (PDX Model BL0645 [5]): RES
